{"source": "patent US20080090895A1", "about": "“Novel Pharmaceutical Composition And Their Uses Thereof For Controlling The Different Forms Of Addiction To Drugs” (Trimaran Limited, priority 2004, published 2008)", "key": {"male mice of OF1 strain [1]": {"system": "male mice of OF1 strain", "test": "Measurement of the locomotor activity", "type": "in vivo"}, "male mice of OF1 strain [2]": {"system": "male mice of OF1 strain", "test": "Conditioned preference of place: measurement of the psychic dependency", "type": "in vivo", "procedure": "(§1) The animals used in this study are male mice of OF1 strain weighing about 20 g at the start of the experiments (Charles River, France). They live in an environment whose daily lighting cycle (07:30 h; 17:30 h) is constant throughout the year, and the temperature is maintained at about 22° C. The mice have free access to water and food, and the experiments are performed in accordance with the international rules on ethics in animal experimentation.\n(§2) The animals are treated chronically via the intraperitoneal route (IP) with amisulpride or physiological saline. The injections are performed twice a day, with an interval of about eight hours between each administration, over a period ranging between five days and three weeks. […] RB101 is administered on the day of the test intravenously (IV), 10 minutes before the start of the test (except for the measurements of locomotor activity performed immediately after injection).\n3.4 Conditioned Preference of Place: Measurement of the Psychic Dependency\nThe apparatus for conditioned preference of place consists of a box divided into three separate compartments: a black compartment with a smooth floor, a black and white stripy compartment with a rough floor, and a neutral central compartment.\nThe Test Proceeds in 3 Phases:\n• a pretest phase: the animal is placed in the neutral central compartment and has free access to the three compartments of the apparatus for 20 minutes. The time spent in each compartment is recorded using a camera connected to a computer. The mice showing a spontaneous preference for one of the compartments (i.e. spending more than 75% of the allotted time in one of the side compartments) are removed from the experiment.\nAfter this first session, the animals are randomized in order to assign a treatment to them (morphine or physiological saline, SC) and the compartment in which they will receive the drug (black or black and white stripy compartment). […]"}, "male mice of OF1 strain [3]": {"system": "male mice of OF1 strain", "settings": "Baamonde et al., 1992; cited from earlier work"}, "male mice of OF1 strain [4]": {"system": "male mice of OF1 strain", "settings": "Baamonde et al., 1992; Browne, 1980; cited from earlier work"}, "male mice of OF1 strain [5]": {"system": "male mice of OF1 strain", "test": "Measurement of the analgesia by the hotplate test", "type": "in vivo", "procedure": "as §1, §2\n3.2 Measurement of the Analgesia by the Hotplate Test\nThe mice are placed individually inside a cylinder, on a plate heated to 52±1° C. by a water circuit. The lag time for the jumping of the mice is measured, the value 100 of the percentage of analgesia corresponding to a time limited to 240 seconds in order to avoid skin lesions. The test is performed 10 minutes after injection of RB101 (5 mg/kg, IV) or of the vehicle. The results are expressed as a percentage of analgesia calculated by means of the following formula: (mean of the jumping lag times for the treated group—mean of the jumping lag times for the control group)/(240−mean of the jumping lag times for the control group)×100. The results are expressed as mean ±sem."}, "male mice of OF1 strain [6]": {"system": "male mice of OF1 strain", "test": "Test of forced swimming (Porsolt's test): model of depression", "type": "in vivo", "settings": "0.25 mg/kg, IV", "procedure": "as §1, §2\n3.3 Test of Forced Swimming (Porsolt's Test): Model of Depression\nThe mice are placed individually in a cylindrical container filled to a height of 15 cm with water, the water being at room temperature. After a delay of 2 minutes, the total immobile time of the animal is measured for 4 minutes. The movements necessary for the animal to keep its head above water are not counted."}}, "note": "Where a name gives a salt, the structure may show the parent alone.", "data": [{"compound": "CCN1CCCC1CNC(=O)c1cc(S(=O)(=O)CC)c(N)cc1OC", "note": "(stereo not drawn) [amisulpride]", "values": [{"measurement": "dose at which the reduction in locomotor activity is significant", "setting": "male mice of OF1 strain [1]; doses tested 0.5, 2, 10, 20 and 50 mg/kg", "value": "≥ 10", "unit": "mg/kg"}]}, {"compound": "CN1CC[C@]23c4c5ccc(O)c4O[C@H]2[C@@H](O)C=C[C@H]3[C@H]1C5.Cl", "note": "[morphine, morphine hydrochloride]", "values": [{"measurement": "conditioned place preference (test 1)", "setting": "male mice of OF1 strain [2]; morphine 10 mg/kg SC conditioning, relative to the saline solution group", "value": "Place preference is observed"}, {"measurement": "conditioned place preference (test 2)", "setting": "male mice of OF1 strain [2]; morphine-conditioned mice, amisulpride 20 mg/kg IP twice a day for 5 days, RB101 IV on the day of test 2 (sixth day), or no such treatment, relative to control group", "value": "tendency toward persistence of the place preference"}, {"measurement": "conditioned place preference (test 3)", "setting": "male mice of OF1 strain [2]; morphine-conditioned mice, four days after test 2, no RB101 on the day of test 3, with or without prior amisulpride+RB101 treatment", "value": "A place preference is found"}]}, {"compound": "CSCC[C@H](N)CSSCC(Cc1ccccc1)C(=O)N[C@@H](Cc1ccccc1)C(=O)OCc1ccccc1", "note": "(stereo partly drawn) [RB101]", "values": [{"measurement": "effect of RB101 alone on immobile time in forced swimming (literature)", "setting": "male mice of OF1 strain [3]", "value": "reduces the immobile time"}, {"measurement": "effect of the substance alone on locomotor activity in mice (literature)", "setting": "male mice of OF1 strain [4]", "value": "increase in locomotor activity"}, {"measurement": "percentage of analgesia (hotplate, jumping lag time)", "setting": "male mice of OF1 strain [5]; RB101 5 mg/kg IV on the day of the test, alone or after amisulpride treatment for five days (20 mg/kg IP twice/day)", "value": "38.4%±10.8%"}, {"measurement": "percentage of analgesia (hotplate, jumping lag time)", "setting": "male mice of OF1 strain [5]; RB101 dose effect, 5 mg/kg intravenously, 10 minutes before the test, mean ±sem", "value": "45.2%±10.6%"}]}, {"compound": "CCC(=O)C(CC(C)N(C)C)(c1ccccc1)c1ccccc1", "note": "(stereo not drawn) [methadone, Methadone hydrochloride]", "values": [{"measurement": "effect of methadone alone in locomotor activity", "setting": "male mice of OF1 strain [1]; 0.25 mg/kg, IV", "value": "did not show a significant effect"}, {"measurement": "effect of methadone alone in forced swimming", "setting": "male mice of OF1 strain [6]", "value": "did not show a significant effect"}, {"measurement": "effect of the substance alone on locomotor activity in mice (literature)", "setting": "male mice of OF1 strain [4]", "value": "hyperlocomotor activity"}, {"measurement": "analgesia of methadone alone in the hotplate test", "setting": "male mice of OF1 strain [5]; 0.25 mg/kg, IV", "value": "pronounced analgesia"}]}]}
